Consider eleven compounds from PubChem BioAssay AID196 (DTP/NCI, 2004).

The subject of the assay is BDF1 mice, intracerebral B16 melanoma, median survival T/C. Nature of the assay: NCI In Vivo Anticancer Drug Screen. Data for tumor model B16 Melanoma (intracerebral) in B6D2F1 (BDF1) mice. The settings on record: endpoint: median survival time, higher = longer survival. The procedure:
The antitumor activity of compounds was measured in mice bearing transplantable tumors. Survival or tumor size were measured and the results are expressed as the measurement made in the treated group (T) divided by the measurement made in the vehicle treated control group (C). The tumor model used in this assay is B16 Melanoma (intracerebral) in B6D2F1 (BDF1) mice

The mark [1] stands for this setting: dose: 40.0 mg/kg/injection, schedule: Q01DX001 (ip), vehicle: Klucel (hydroxypropylcellulose) (HPC).
Where [2] appears, read: dose: 60.0 mg/kg/injection, schedule: Q01DX001 (ip), vehicle: Klucel (hydroxypropylcellulose) (HPC).
The mark [3] stands for this setting: dose: 6.25 mg/kg/injection, schedule: Q01DX009 (ip), vehicle: other.
The mark [4] stands for this setting: dose: 12.5 mg/kg/injection, schedule: Q01DX009 (ip), vehicle: other.
Where [5] appears, read: dose: 25.0 mg/kg/injection, schedule: Q01DX009 (ip), vehicle: other.
Where [6] appears, read: dose: 50.0 mg/kg/injection, schedule: Q01DX009 (ip), vehicle: other.
Setting [7] is: dose: 16.0 mg/kg/injection, schedule: Q01DX005 (ip), vehicle: saline.

SMILES strings stand for the structures. Several values for one entry are separate records, joined by “and”; a condition that tells them apart may be missing. Equal values may be shown once. Toxic doses and inconclusive results are not listed.

`O=NN(CCCl)C(=O)NC1CCCCC1`: the T/C by setting is: (dose: 2.0 mg/kg/injection, schedule: Q01DX009 (ip), vehicle: Klucel (hydroxypropylcellulose) (HPC)) 116 % of control; (dose: 2.4 mg/kg/injection, schedule: Q01DX001 (ip), vehicle: other) 116 % of control; (dose: 4.0 mg/kg/injection, schedule: Q01DX009 (ip), vehicle: other) 124 % of control; (dose: 4.7 mg/kg/injection, schedule: Q01DX001 (ip), vehicle: other) 100 % of control; (dose: 7.5 mg/kg/injection, schedule: Q01DX009 (ip), vehicle: saline) 118 % of control; (dose: 8.0 mg/kg/injection, schedule: Q01DX009 (ip), vehicle: Klucel (hydroxypropylcellulose) (HPC)) 161 % of control. Also, the T/C was 102 % of control (dose: 8.0 mg/kg/injection, schedule: Q04DX003 (ip), vehicle: Klucel (hydroxypropylcellulose) (HPC)); 121 % of control (dose: 9.5 mg/kg/injection, schedule: Q01DX001 (ip), vehicle: other); 118 % of control (dose: 13.0 mg/kg/injection, schedule: Q01DX001 (ip), vehicle: other); 150 % of control (dose: 15.0 mg/kg/injection, schedule: Q01DX009 (ip), vehicle: saline); 154 % of control (dose: 16.0 mg/kg/injection, schedule: Q01DX009 (ip), vehicle: Klucel (hydroxypropylcellulose) (HPC)); 118 % of control (dose: 16.0 mg/kg/injection, schedule: Q01DX009 (ip), vehicle: other). Besides, the T/C by setting is: (dose: 16.0 mg/kg/injection, schedule: Q01DX009 (ip), vehicle: saline with Tween-80) 213 % of control; (dose: 16.0 mg/kg/injection, schedule: Q04DX003 (ip), vehicle: Klucel (hydroxypropylcellulose) (HPC)) 102 % of control; (dose: 17.8 mg/kg/injection, schedule: Q01DX001 (ip), vehicle: Klucel (hydroxypropylcellulose) (HPC)) 113 % of control; (dose: 18.9 mg/kg/injection, schedule: Q01DX001 (ip), vehicle: other) 123 % of control; (dose: 30.0 mg/kg/injection, schedule: Q01DX009 (ip), vehicle: saline) 290 % of control; (dose: 32.0 mg/kg/injection, schedule: Q01DX009 (ip), vehicle: Klucel (hydroxypropylcellulose) (HPC)) 95 % of control. Further, the T/C was 220 % of control (dose: 32.0 mg/kg/injection, schedule: Q04DX003 (ip), vehicle: saline); 224 % of control (dose: 36.0 mg/kg/injection, schedule: Q01DX001 (ip), vehicle: Klucel (hydroxypropylcellulose) (HPC)); 338 % of control (dose: 36.0 mg/kg/injection, schedule: Q01DX001 (ip), vehicle: other); 173 % of control (dose: 37.8 mg/kg/injection, schedule: Q01DX001 (ip), vehicle: other); 150 % of control under setting [1]; 202 % of control and 212 % of control under setting [2]. Besides, where the note is “dose: 90.0 mg/kg/injection, schedule: Q01DX001 (ip), vehicle: Klucel (hydroxypropylcellulose) (HPC)”, the T/C was 90 % of control.
As to `CN(C)N=Nc1cccc2c1N(C)c1ccc(Cl)cc1S2`, the T/C by setting is: under setting [3], 103 % of control; under setting [4], 100 % of control; under setting [5], 108 % of control; under setting [6], 101 % of control; (dose: 100.0 mg/kg/injection, schedule: Q01DX009 (ip), vehicle: other) 101 % of control.
With `COc1ccc(CC2C(=O)NC(C)C(=O)N(C)C3C(=O)N(C)C(Cc4ccc(O)c(c4)Oc4ccc(cc4)C3O)C(=O)NC(C)C(=O)NC(C)C(=O)N2C)cc1` (stereo not given), the T/C is, setting by setting: (dose: 0.12 mg/kg/injection, schedule: Q01DX009 (ip), vehicle: Klucel (hydroxypropylcellulose) (HPC)) 97 % of control and 102 % of control; (dose: 0.12 mg/kg/injection, schedule: Q01DX009 (ip), vehicle: saline) 93 % of control; (dose: 0.25 mg/kg/injection, schedule: Q01DX009 (ip), vehicle: Klucel (hydroxypropylcellulose) (HPC)) 100 % of control and 108 % of control; (dose: 0.25 mg/kg/injection, schedule: Q01DX009 (ip), vehicle: saline) 103 % of control; (dose: 0.5 mg/kg/injection, schedule: Q01DX009 (ip), vehicle: Klucel (hydroxypropylcellulose) (HPC)) 94 % of control and 97 % of control and 100 % of control; (dose: 0.5 mg/kg/injection, schedule: Q01DX009 (ip), vehicle: saline) 102 % of control. Moreover, the T/C was 90 % of control and 94 % of control and 100 % of control (dose: 1.0 mg/kg/injection, schedule: Q01DX009 (ip), vehicle: Klucel (hydroxypropylcellulose) (HPC)); 98 % of control (dose: 1.0 mg/kg/injection, schedule: Q01DX009 (ip), vehicle: saline); 100 % of control (dose: 2.0 mg/kg/injection, schedule: Q01DX009 (ip), vehicle: saline).
Consider `CN(C)N=Nc1ccnc2ccc(I)cc12`, for which the T/C is, setting by setting: (dose: 3.12 mg/kg/injection, schedule: Q01DX009 (ip), vehicle: other) 112 % of control; under setting [3], 110 % of control; under setting [4], 95 % of control; under setting [5], 110 % of control; under setting [6], 109 % of control.
Consider `C[n+]1c2ccccc2nc2c(N)cc(N)cc21`, for which the T/C runs as follows: (dose: 4.0 mg/kg/injection, schedule: Q01DX005 (ip), vehicle: suspension in saline) 93 % of control; (dose: 8.0 mg/kg/injection, schedule: Q01DX005 (ip), vehicle: suspension in saline) 92 % of control and 98 % of control; (dose: 16.0 mg/kg/injection, schedule: Q01DX005 (ip), vehicle: suspension in saline) 100 % of control and 103 % of control; (dose: 32.0 mg/kg/injection, schedule: Q01DX005 (ip), vehicle: suspension in saline) 93 % of control and 97 % of control.
As for `S=c1nc[nH]c2nc[nH]c12`, the T/C was 91 % of control (dose: 11.3 mg/kg/injection, schedule: Q01DX009 (ip), vehicle: other); 100 % of control (dose: 22.5 mg/kg/injection, schedule: Q01DX009 (ip), vehicle: other); 100 % of control (dose: 45.0 mg/kg/injection, schedule: Q01DX009 (ip), vehicle: other).
For the compound `CN=NNc1nc[nH]c1C(N)=O`, the T/C runs as follows: under setting [7], 106 % of control; (dose: 32.0 mg/kg/injection, schedule: Q01DX005 (ip), vehicle: saline) 95 % of control; (dose: 64.0 mg/kg/injection, schedule: Q01DX005 (ip), vehicle: saline) 102 % of control; (dose: 128.0 mg/kg/injection, schedule: Q01DX005 (ip), vehicle: saline) 107 % of control.
`COc1ccc2c(c1O)-c1cccc3c1[C@@H](C2)N(CCCl)CC3`: the T/C is, setting by setting: (dose: 8.0 mg/kg/injection, schedule: Q01DX005 (ip), vehicle: saline) 94 % of control; under setting [7], 88 % of control.
For `NC(C/[N+]([O-])=N/O)C(=O)O` (stereo not given), the T/C reads like this: (dose: 3.5 mg/kg/injection, schedule: Q01DX009 (ip), vehicle: saline) 97 % of control; (dose: 7.0 mg/kg/injection, schedule: Q01DX009 (ip), vehicle: saline) 87 % of control; (dose: 12.5 mg/kg/injection, schedule: Q01DX009 (ip), vehicle: Klucel (hydroxypropylcellulose) (HPC)) 107 % of control; (dose: 14.0 mg/kg/injection, schedule: Q01DX009 (ip), vehicle: saline) 89 % of control; (dose: 25.0 mg/kg/injection, schedule: Q01DX009 (ip), vehicle: Klucel (hydroxypropylcellulose) (HPC)) 100 % of control; (dose: 56.25 mg/kg/injection, schedule: Q01DX009 (ip), vehicle: saline) 101 % of control.
Turning to `O=NN(CCF)C(=O)N[C@H]1CCCC[C@H]1O`, the T/C (dose: 26.7 mg/kg/injection, schedule: Q01DX001 (ip), vehicle: Klucel (hydroxypropylcellulose) (HPC)) is 151 % of control; the T/C under setting [1] is 155 % of control; the T/C under setting [2] was 330 % of control.
For `CSCS(=O)C[C@H](CO)NC(=O)/C=C/c1c(C)[nH]c(=O)[nH]c1=O` (stereo not given in full), the T/C (dose: 0.06 mg/kg/injection, schedule: Q01DX005 (ip), vehicle: Klucel (hydroxypropylcellulose) (HPC)) is 97 % of control; the T/C (dose: 0.12 mg/kg/injection, schedule: Q01DX005 (ip), vehicle: Klucel (hydroxypropylcellulose) (HPC)) is 98 % of control; the T/C (dose: 0.25 mg/kg/injection, schedule: Q01DX005 (ip), vehicle: Klucel (hydroxypropylcellulose) (HPC)) was 103 % of control; the T/C (dose: 0.5 mg/kg/injection, schedule: Q01DX005 (ip), vehicle: Klucel (hydroxypropylcellulose) (HPC)) is 98 % of control.
